Reference: patent US20050158280A1, “Method of reducing angiogenesis” (priority 2001, published 2005)

Assays:
macrophages = assay: Transmigration of macrophages on MATRIGEL-coated Transwell membranes; assay type: cell-based, mouse; settings: for migration through MATRIGEL (FIG. 5, in words): cd39-null knockout (KO) macrophages; for number of transmigrated macrophages (normalized to wild-type): cd39-null macrophages, nonstimulated null 80±30.0% of wild-type; for number of transmigrated macrophages (normalized to wild-type) / number of transmigrated macrophages (normalized): MATRIGEL-coated Transwell; for number of transmigrated macrophages (normalized): wild-type macrophages, no endothelial cells, ATP 200 μmol/L, serotonin 20 μmol/L, MCP-1 50 ng/mL
Method: (§1) Transmigration assays through an endothelial cell monolayer were performed (Jones, G. E. J. Leukoc. Biol. 68:593-602, 2000). Murine 2F2B endothelial cells (ATCC) were plated on collagen type 1-coated polycarbonate inserts with 3-μm pores (Costar, Fisher Scientific) and then incubated in RPMI containing 5% FCS overnight to attain full confluence. Wild-type or cd39-null peritoneal macrophages were added to the upper chamber and incubated at 37° C. in 5% CO2 for 10 hours. In the lower chamber, culture media with chemoattractant factors at various combinations were added: ATP 200 μmol/L, serotonin 20 μmol/L, and monocyte chemoattractant factor-1 (MCP-1) 50 ng/mL. Nonadherent cells in both supernatant fluids were counted. In parallel experiments, inserts were precoated with collagen or MATRIGEL® alone. Wild-type and cd39-null macrophages were plated on the upper surface of coated inserts. Cells were allowed to adhere and migrate over a 6-hour period. Cells on the lower surface were fixed in 2% ethanol and stained with 0.2% crystal violet (Sigma). Four fields of vision (×400) per well were randomly chosen, and cell counts were performed manually by 2 observers in a blinded fashion.

monocyte/macrophages = assay: Transmigration of monocyte/macrophages through an endothelial cell monolayer; assay type: cell-based, mouse
Method: as §1

HUVEC [1] = settings: cited from earlier work
ATPDase/CD39 [2] = settings: cited from earlier work; for Specific ADPase activity / ATPase activity: HUVEC lysate, n=6; for Specific ADPase activity: mean SD, control liposomes 26.0±3.1; for ATPase activity: control liposomes 28.2±4.6
CD39 = settings: HUVEC, cited from earlier work; for immunoreactive intact CD39 (densitometric analysis of Western blot): 48 h after transfection, control liposomes = 100%
HUVEC [3] = settings: cited from earlier work; for rate of ATP hydrolysis by EC: HUVEC after transfection, n=9, liposome treated controls 17.9
ATPDase/CD39 [4] = settings: COS-7 cells; cited from earlier work
CD39 mRNA = settings: HUVEC, 48 h post-transfection; vs scrambled oligonucleotides and control liposomes; cited from earlier work
peritoneal macrophages = assay: Cytofluorometric (FACS) analysis of macrophage integrin/ICAM-1 surface expression; assay type: cell-based, mouse; settings: 200 μmol/L, vs control; for αmβ2 (MAC-1) and ICAM-1 coexpression levels: quiescent cd39-null macrophages; for cell surface coexpression of αmβ2 (MAC-1) and ICAM-1: wild-type macrophages, 30 minutes
Method: After isolation, naive peritoneal macrophages were also stimulated for 30 minutes (or for 24 hours) in RPMI+5% FCS, both at 37° C., with ATP 200 μmol/L, or with ATPγS 200 μmol/L, and then washed with PBS. Nonspecific binding of isospecific IgG was controlled by incubation with isospecific IgG conjugated to FITC and phycoerythrin, respectively. Cells were double-stained with phycoerythrin-conjugated rat anti-mouse CD11b in conjunction with FITC-labeled anti-mouse intercellular adhesion molecule (ICAM)-1 (or very late antigen-1, -4), respectively. Fluorescence-activated cell sorter (FACS) analysis was performed (FACSCAN™, Becton Dickinson). Data were analyzed with CELLQUEST™ computer software (Becton Dickinson).

[5] = cd39-null monocyte/macrophages, ATP 200 μmol/L or MCP-1 50 ng/mL, spontaneous 6200±1200
[6] = wild-type monocyte/macrophages, ATP 200 μmol/L or MCP-1 50 ng/mL in lower chamber, spontaneous 4900±400

Molecule | migration through MATRIGEL (FIG. 5, in words) (macrophages) | number of transmigrated macrophages (normalized to wild-type) (macrophages) | number of transmigrated macrophages (normalized) (macrophages) | monocyte/macrophages migrated across the endothelial cell monolayer (monocyte/macrophages; [5]) | monocyte/macrophages migrated across the endothelial cell monolayer (monocyte/macrophages; [6]) | Total cell protein content (HUVEC [1]) | Specific ADPase activity (ATPDase/CD39 [2]) | ATPase activity (ATPDase/CD39 [2]) | immunoreactive intact CD39 (densitometric analysis of Western blot) (CD39) | rate of ATP hydrolysis by EC (HUVEC [3]) | αmβ2 (MAC-1) and ICAM-1 coexpression levels (peritoneal macrophages) | cell surface coexpression of αmβ2 (MAC-1) and ICAM-1 (peritoneal macrophages) | also measured
NCCc1c[nH]c2ccc(O)cc12 [serotonin] | no substantial effect | 98±20.0% | 120±20% |  |  |  |  |  |  |  |  |  | 
monocyte chemoattractant factor-1 [MCP-1] |  | 303±17% | 450±20% | 35,200±7,300 cells | 61,800±23,400 cells |  |  |  |  |  |  |  | 
5′-CTCCTTTGTATCTTCCATAAGTAGC-3′ (antisense CTCCTTTGTATCTTCCATAAGTAGC; chimeric second generation modifications, further chemistry not given here) [antisense oligonucleotides] |  |  |  |  |  | 17.6±2.8 (g/10^6cells | 9.5±3.4 nmole Pi/min/mg protein | 15.1±3.4 nmole Pi/min/mg protein | 66% | 4.8 pmole/min/10^6cells |  |  | cell viability determined by trypan blue exclusion (HUVEC [1]): over 90%; ATPase activity, of control levels (ATPDase/CD39 [2]; HUVEC, residual activity): 53%; ATPase activity, of that for scrambled control oligomers (ATPDase/CD39 [2]; HUVEC, residual activity): 51%; Normalized ADPase activity, compared with scrambled oligomers (ATPDase/CD39 [2]; HUVEC, residual activity): 42%; Normalized ADPase activity, of control liposomes (ATPDase/CD39 [2]; HUVEC, residual activity): 36%; apparent decrease in CD39 protein expression (qualitative Western blotting) (CD39; 48 h): approximately 40%; boost of area under curve estimates of ATP release (HUVEC [3]; ADP-stimulated HUVEC, over first 15 min, compared to controls): 194%; ADPase levels, of control cells transfected with CD39 cDNA (ATPDase/CD39 [4]): 15%; ATPase levels, of control cells transfected with CD39 cDNA (ATPDase/CD39 [4]): approximately 5%; CD39 mRNA expression (Northern blotting) (CD39 mRNA): specifically inhibited transcription of CD39 mRNA
Nc1ncnc2c1ncn2[C@@H]1O[C@H](COP(=O)(O)OP(=O)(O)OP(=O)(O)O)[C@@H](O)[C@H]1O [ATP, adenosine triphosphate] | no substantial effect | 108±24% | 230±20% | 8,750±4,100 cells | 22,300±3,300 cells |  |  |  |  |  | largely unaltered | increased significantly | 
Nc1ncnc2c1ncn2[C@@H]1O[C@H](COP(=O)(O)OP(=O)(O)OP(O)(O)=S)[C@@H](O)[C@H]1O [ATPγS] |  |  |  |  |  |  |  |  |  |  | largely unaltered | increased significantly | 
5′-TTCGTATCTTCGCTAGCTTATACAC-3′ (TTCGTATCTTCGCTAGCTTATACAC; chemistry not given here) [scrambled control oligonucleotides, scrambled control oligonucleotide] |  |  |  |  |  | 17.7±1.8 (g/10^6cells | 22.6±2.1 nmole Pi/min/mg protein | 29.1±1.2 nmole Pi/min/mg protein | 103% | 19.6 pmole/min/10^6cells |  |  | 
